Laboratory results taken from patent US10438128B2, “Treatment of autoimmune and inflammatory diseases with the arsenic compounds AS2O3 and/or AS2O5 administered locally” (CENTRE NATIONAL DE LA RECHERCHE SCIENTIFIQUE (CNRS), priority 2013, dated 2019).

Tests used:
MRL/lpr mice [1] = assay: Experiment 1: topical treatment of skin lesions in MRL/lpr mice with As2O3; format: in vivo, mouse; settings: 0.5 mg/ml
Text: MRL/lpr mice spontaneously develop disseminated lupus erythematosus, rheumatoid polyarthritis and Sjögren's syndrome characterized by dermatological, vascular, renal, pulmonary, articular and ocular damage due to lymphoid cell infiltrates. As in man, a strong sexual dimorphism is observed in MRL/lpr mice, the female mice presenting an earlier and more severe pathology than the males and dying earlier. The disease begins around the age of 8 weeks and causes the death of the mice, on average, at around 18 weeks of age for the females and 22 weeks for the males, the average lifespan of a normal mouse being 2 years.
Methods: The solubility of arsenic compounds depends mainly on the pH and oxidation-reduction conditions and the temperature of the excipient. Since the arsenic compound As2O3 is poorly water soluble, it is first dissolved at a high concentration (60 to 70 mg/ml) in dilute alkaline solution (0.5 or 1 M) and gently heated until a clear and colorless solution is obtained. This solution is made free of particles and sterile by filtration on a 0.22 μm filter. The stock As2O3 solution thus obtained is then diluted in phosphate buffer or sterile physiological saline at the concentration varying from 0.5 mg/ml for use in vivo. The stock solution of the arsenic compound As2O3 is preserved from 1 to 3 months in the refrigerator (4° C.), whereas the dilute solution is preserved only 5 days at 4° C. and away from light.
MRL/lpr mice (10 females and 10 males per group, aged 4 to 5 months) presenting severe lupus-type skin lesions, and for some cutaneous necrotizing vasculitis, were treated, 3 or 5 times per week depending on the experiment (from Monday to Friday), for 8 weeks, by application on the tissue lesions of a compress (or a brush) impregnated with arsenic As2O3 solution at concentrations of 0.5 mg/ml. The control animals were mice, of the same age and sex, treated with the excipient.

MRL/lpr mice [2] = assay: Experiment 6: local treatment with suboptimal As2O3, As2O5 or the combination; format: in vivo, mouse; settings: suboptimal 0.12 mg/ml, 5 applications/week, 8 weeks
Experimental: (§1) Methods: MRL/lpr mice (males and females) presenting severe lupus-type skin lesions and cutaneous necrotizing vasculitis were treated 5 times per week, for 8 weeks, by administering an aqueous solution containing either the arsenic compound As2O3 or the compound As2O5 or a mixture of both compounds As2O3+As2O5 or phosphate buffer (PBS) as negative control. Weakly effective doses (suboptimal) of As2O3 or As2O5 were voluntarily used. The arsenic compounds were administered in aqueous form using compresses or a brush for local treatment or an intraperitoneal injection for systemic treatment.
(§2) At the conclusion of the treatment, the blood of each animal was sampled in order to quantify in the serum the levels of autoantibodies (anti-DNA, rheumatoid factor) and cytokines involved in the disease. Skin from the back of each animal was sampled for histological analysis and for analysis of the nature of the inflammatory infiltrate after isolating the cells using enzymatic methods, their counts under the microscope and their analyses by flow cytometry using fluorescent antibodies specific to leukocytes.

[3] = 20° C.; cited from earlier work
MRL/lpr mice [4] = assay: Experiment 6: systemic treatment with suboptimal As2O3, As2O5 or the combination; format: in vivo, mouse; settings: suboptimal 0.12 mg/ml, 5 times/week, 8 weeks
Experimental: as §1, §2

MRL/lpr mice [5] = assay: Experiment 2: gradual decrease in number of weekly topical applications of As2O3; format: in vivo, mouse
Experimental: Methods: Severe skin lesions and cutaneous necrotizing vasculitis present before treatment (time t0 in FIGS. 3, 4 and 5) in 15 4-month-old MRL/lpr mice were treated by applying a compress (or a brush) impregnated with a solution of the arsenic compound As2O3 at the concentration of 0.5 mg/ml. The number of applications per week varied from 2 to 5 depending on the experiment. Similarly, the total duration of the topical treatment varied from 7 to 32 weeks.

MRL/lpr mice [6] = assay: Experiment 5: systemic (intraperitoneal) treatment of skin lesions in MRL/lpr mice with As2O5; format: in vivo, mouse
Experimental: Methods: MRL/lpr mice (6 females and 6 males, 4 to 5 months of age) presenting severe lupus-type skin lesions and cutaneous necrotizing vasculitis (time t0 FIGS. 8A and 8B) were treated 5 times per week (Monday to Friday), for 3 or 4 weeks, by intraperitoneal injections of 0.1 ml per 10 g of mouse of a solution of arsenic As2O5 at the concentration of 0.5 mg/ml. The control animals were mice of the same age and sex treated with the excipient.

MRL/lpr mice [7] = assay: Experiment 4: gradual decrease in number of weekly topical applications of As2O5; format: in vivo, mouse
Experimental: Methods: Severe skin lesions and cutaneous necrotizing vasculitis present at time t0 in 10 MRL/lpr mice 4 to 5 months in age were treated by applying a compress (or a brush) impregnated with a solution of the arsenic compound As2O5 at the concentration of 0.5 mg/ml.

[8] = cited from earlier work
[9] = ratio to As2O3; cited from earlier work
MRL/lpr mice [10] = assay: Experiment 3: topical treatment of skin lesions in MRL/lpr mice with As2O5; format: in vivo, mouse; settings: 0.5 mg/ml
Experimental: Methods: The arsenic compound As2O5 is first dissolved at a high concentration (10 to 15 mg/ml) in distilled water until a clear and colorless solution is obtained. The solution is made sterile and free of particles by filtration on a 0.22 μm filter. The stock As2O5 solution thus obtained is then diluted in phosphate buffer or sterile physiological saline so as to obtain a concentration between 0.5 mg/ml for use in vivo. The stock solution of the arsenic compound As2O5 is preserved for 1 to 3 months in the refrigerator (4° C.), while the dilute solution is preserved for only 5 days at 4° C. and away from light.
MRL/lpr mice (12 females and 12 males, 4 to 5 months of age) presenting severe lupus-type skin lesions, and for some cutaneous necrotizing vasculitis (time t0 in FIG. 6), were treated 5 times per week (Monday to Friday), for 8 weeks, by applying on the tissue lesions a compress (or a brush) impregnated with a solution of arsenic As2O5 at concentrations of 0.5 mg/ml. The control animals were mice of the same age and sex treated with the excipient.

arsenic trioxide [As2O3]
regrowth of hair (skin tissue regeneration) (MRL/lpr mice [1]): nearly complete regrowth of hair | tissue lesions after 8 weeks with 3 weekly applications (MRL/lpr mice [1]; 3 applications/week, less severe lesions, female mice): significant decrease | tissue destruction after 2 weeks of treatment (MRL/lpr mice [1]; 5 applications/week, 2 weeks): ceased and even regressed | inflammatory skin lesions after 8 weeks of treatment (MRL/lpr mice [1]; 5 applications/week, 8 weeks): nearly completely disappear | undesirable effect (nonspecific immunosuppression, tissue toxicity or premature death) (MRL/lpr mice [1]; 8 weeks): No undesirable effect | cells in lymphocytic/inflammatory infiltrate of back skin (FIG. 9A) (MRL/lpr mice [2]): still high number of cells | inflammatory skin lesions (FIG. 10) (MRL/lpr mice [2]): presence of severe skin lesions | solubility in water [3]: 37 mg/mL | cells in lymphocytic/inflammatory infiltrate of back skin (FIG. 9B) (MRL/lpr mice [4]): still high number of cells | relapse or rebound of the disease after reduced dosing schedule (MRL/lpr mice [5]; 5/week for 4 weeks, then 3/week for 6 weeks, female mouse): no relapse or rebound | skin damage after 7 weeks of topical treatment (MRL/lpr mice [5]; 5 applications/week for 2 weeks, then 2/week for 5 weeks): decreased considerably | age reached by treated mouse (euthanized) (MRL/lpr mice [5]; female, 3.5 months old at t0, treated 32 weeks discontinuously): 1 year

O=[As](=O)O[As](=O)=O [As2O5, arsenic pentoxide]
regrowth of hair (regeneration of lesioned skin tissue) (MRL/lpr mice [6]): nearly complete regrowth of hair | undesirable effect (nonspecific immunosuppression, tissue toxicity or premature death) (MRL/lpr mice [6]; 0.5 mg/ml solution): no undesirable effect | destruction of skin after 3 or 4 weeks of treatment (MRL/lpr mice [6]; 0.1 ml per 10 g of 0.5 mg/ml, 5 times/week): strongly regressed or even nearly disappeared | cells in lymphocytic/inflammatory infiltrate of back skin (FIG. 9A) (MRL/lpr mice [2]): still high number of cells | inflammatory skin lesions (FIG. 10) (MRL/lpr mice [2]): presence of severe skin lesions | relapse or rebound of the disease at a single application per week (MRL/lpr mice [7]; 5 weeks, 1 application/week): no relapse or rebound | time to stop development of tissue lesions (MRL/lpr mice [7]; front-line treatment, 5 applications/week): ≤ 2 weeks | skin lesions after 2 further weeks at 2 applications per week (MRL/lpr mice [7]; topical, 0.5 mg/ml): nearly disappeared | inflammatory skin and vasculitis lesions after 2 weeks (MRL/lpr mice [7]; topical, 0.5 mg/ml, 5 applications/week): ceased | survival after the beginning of the treatment (majority of animals) (MRL/lpr mice [7]; topical, schedule reduced from 5 to 1 application/week): more than 8 weeks | oral lethal dose for man [8]: 5 to 50 mg/kg | toxicity relative to As2O3 [9]: about 1/60 | cells in lymphocytic/inflammatory infiltrate of back skin (FIG. 9B) (MRL/lpr mice [4]): still high number of cells | regrowth of hair (regeneration of lesioned skin tissue) (MRL/lpr mice [10]): nearly complete regrowth of hair | destruction of the skin in first week of treatment (MRL/lpr mice [10]; 5 applications/week): ceased | skin lesions after 4 weeks of treatment (MRL/lpr mice [10]; 5 applications/week): almost disappeared | time until destruction of skin tissue ceased (MRL/lpr mice [10]; 5 applications/week): less than 2 weeks | undesirable effect (nonspecific immunosuppression, tissue toxicity or premature death) (MRL/lpr mice [10]; 8 weeks): no undesirable effect
